Assay results taken from PubChem BioAssay (NCI).
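Where inhibition never reached the appropriate level, the endpoint shown equals the highest concentration tested. Otherwise, values were interpolated linearly from a five-concentration, 48-hour dose response in 96-well plates. TGI denotes the concentration required for complete inhibition of growth.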

Key:
Test in all cases: NCI tumour cell line growth inhibition, 48 h
SK-OV-3 ovarian = system: SK-OV-3 ovarian
OVCAR-8 ovarian = system: OVCAR-8 ovarian
HT29 colon = system: HT29 colon
HCC-2998 colon = system: HCC-2998 colon
ACHN renal = system: ACHN renal
SNB-75 CNS = system: SNB-75 CNS
NCI-H226 lung = system: NCI-H226 lung
A549 NSCLC = system: A549 NSCLC
MDA-N = system: MDA-N
HCT-15 colon = system: HCT-15 colon
TK-10 renal = system: TK-10 renal
MOLT-4 leukemia = system: MOLT-4 leukemia
UACC-257 melanoma = system: UACC-257 melanoma
DU-145 prostate = system: DU-145 prostate
U251 CNS = system: U251 CNS
KM12 colon = system: KM12 colon
HL-60(TB) leukemia = system: HL-60(TB) leukemia
MDA-MB-231 breast = system: MDA-MB-231 breast
SR leukemia = system: SR leukemia
786-0 renal = system: 786-0 renal
T-47D breast = system: T-47D breast
OVCAR-3 ovarian = system: OVCAR-3 ovarian
HOP-92 NSCLC = system: HOP-92 NSCLC
COLO 205 colon = system: COLO 205 colon
SNB-19 CNS = system: SNB-19 CNS
SW-620 colon = system: SW-620 colon
HOP-62 NSCLC = system: HOP-62 NSCLC
NCI-H460 lung = system: NCI-H460 lung
SK-MEL-28 melanoma = system: SK-MEL-28 melanoma
A498 renal = system: A498 renal
SK-MEL-2 melanoma = system: SK-MEL-2 melanoma
M14 melanoma = system: M14 melanoma
IGROV1 ovarian = system: IGROV1 ovarian
OVCAR-5 ovarian = system: OVCAR-5 ovarian
HS 578T breast = system: HS 578T breast
MALME-3M melanoma = system: MALME-3M melanoma
UO-31 renal = system: UO-31 renal
SK-MEL-5 melanoma = system: SK-MEL-5 melanoma
MCF7 breast = system: MCF7 breast
SF-539 CNS = system: SF-539 CNS
OVCAR-4 ovarian = system: OVCAR-4 ovarian
CCRF-CEM leukemia = system: CCRF-CEM leukemia
EKVX NSCLC = system: EKVX NSCLC
NCI/ADR-RES ovarian = system: NCI/ADR-RES ovarian
MDA-MB-435 = system: MDA-MB-435
SF-268 CNS = system: SF-268 CNS
HCT-116 colon = system: HCT-116 colon
NCI-H522 lung = system: NCI-H522 lung
SN12C renal = system: SN12C renal
K-562 leukemia = system: K-562 leukemia
UACC-62 melanoma = system: UACC-62 melanoma
LOX IMVI melanoma = system: LOX IMVI melanoma
NCI-H23 lung = system: NCI-H23 lung
CAKI-1 renal = system: CAKI-1 renal
PC-3 prostate = system: PC-3 prostate
BT-549 breast = system: BT-549 breast
RPMI-8226 leukemia = system: RPMI-8226 leukemia
SF-295 CNS = system: SF-295 CNS
RXF 393 renal = system: RXF 393 renal

With COn1cc(C=O)c2ccccc21 the TGI (SK-OV-3 ovarian) was > 100 µM, the TGI (OVCAR-8 ovarian) was > 100 µM and the TGI (HT29 colon) was > 100 µM. For the same molecule, the TGI (HCC-2998 colon) was 53.7 µM, the TGI (ACHN renal) was > 100 µM and the TGI (SNB-75 CNS) was > 95.1 µM. The TGI (NCI-H226 lung) was > 84.9 µM, the TGI (A549 NSCLC) was > 100 µM and the TGI (MDA-N) was 62.7 µM. For the same molecule, the TGI (HCT-15 colon) was > 100 µM, the TGI (TK-10 renal) was > 93 µM and the TGI (MOLT-4 leukemia) was > 100 µM. For the same molecule, the TGI (UACC-257 melanoma) was > 100 µM, the TGI (DU-145 prostate) was > 100 µM and the TGI (U251 CNS) was > 100 µM. The TGI (KM12 colon) was > 56.5 µM, the TGI (HL-60(TB) leukemia) was 1.52 µM and the TGI (MDA-MB-231 breast) was > 100 µM. For the same molecule, the TGI (SR leukemia) was > 71.4 µM, the TGI (786-0 renal) was > 100 µM and the TGI (T-47D breast) was > 100 µM. The TGI (OVCAR-3 ovarian) was > 100 µM, the TGI (HOP-92 NSCLC) was > 100 µM and the TGI (COLO 205 colon) was > 100 µM. The TGI (SNB-19 CNS) was > 100 µM, the TGI (SW-620 colon) was > 100 µM and the TGI (HOP-62 NSCLC) was > 100 µM. The TGI (NCI-H460 lung) was > 100 µM, the TGI (SK-MEL-28 melanoma) was > 100 µM and the TGI (A498 renal) was 3.97 µM. For the same molecule, the TGI (SK-MEL-2 melanoma) was > 100 µM, the TGI (M14 melanoma) was > 100 µM and the TGI (IGROV1 ovarian) was > 100 µM. The TGI (OVCAR-5 ovarian) was > 100 µM, the TGI (HS 578T breast) was > 100 µM and the TGI (MALME-3M melanoma) was > 100 µM. For the same molecule, the TGI (UO-31 renal) was > 100 µM, the TGI (SK-MEL-5 melanoma) was > 100 µM and the TGI (MCF7 breast) was > 100 µM. For the same molecule, the TGI (SF-539 CNS) was > 100 µM, the TGI (OVCAR-4 ovarian) was > 100 µM and the TGI (CCRF-CEM leukemia) was 1.34 µM. For the same molecule, the TGI (EKVX NSCLC) was > 100 µM, the TGI (NCI/ADR-RES ovarian) was > 100 µM and the TGI (MDA-MB-435) was 34.9 µM. For the same molecule, the TGI (SF-268 CNS) was > 100 µM, the TGI (HCT-116 colon) was > 100 µM and the TGI (NCI-H522 lung) was > 100 µM. The TGI (SN12C renal) was > 100 µM, the TGI (K-562 leukemia) was > 100 µM and the TGI (UACC-62 melanoma) was > 100 µM. For the same molecule, the TGI (LOX IMVI melanoma) was > 100 µM, the TGI (NCI-H23 lung) was > 100 µM and the TGI (CAKI-1 renal) was > 100 µM. For the same molecule, the TGI (PC-3 prostate) was > 100 µM, the TGI (BT-549 breast) was > 100 µM and the TGI (RPMI-8226 leukemia) was > 100 µM. For the same molecule, the TGI (SF-295 CNS) was > 95.9 µM and the TGI (RXF 393 renal) was > 100 µM.

O=C(O)c1c(-c2nccc3ccccc23)[nH]c(-c2ccccc2)c1S(=O)(=O)O was tested, and the TGI (SK-OV-3 ovarian) was > 100 µM, the TGI (OVCAR-8 ovarian) was > 100 µM and the TGI (HT29 colon) was > 100 µM. The TGI (ACHN renal) was > 100 µM, the TGI (SNB-75 CNS) was > 100 µM and the TGI (NCI-H226 lung) was > 100 µM. The TGI (A549 NSCLC) was > 100 µM, the TGI (MDA-N) was > 100 µM and the TGI (HCT-15 colon) was > 100 µM. For the same molecule, the TGI (TK-10 renal) was > 100 µM, the TGI (MOLT-4 leukemia) was > 100 µM and the TGI (UACC-257 melanoma) was > 100 µM. For the same molecule, the TGI (DU-145 prostate) was > 100 µM, the TGI (U251 CNS) was > 100 µM and the TGI (KM12 colon) was > 100 µM. For the same molecule, the TGI (HL-60(TB) leukemia) was > 100 µM, the TGI (MDA-MB-231 breast) was > 100 µM and the TGI (SR leukemia) was > 100 µM. For the same molecule, the TGI (786-0 renal) was > 100 µM, the TGI (T-47D breast) was > 100 µM and the TGI (OVCAR-3 ovarian) was > 100 µM. For the same molecule, the TGI (HOP-92 NSCLC) was > 100 µM, the TGI (COLO 205 colon) was > 100 µM and the TGI (SNB-19 CNS) was > 100 µM. For the same molecule, the TGI (SW-620 colon) was > 100 µM, the TGI (HOP-62 NSCLC) was > 100 µM and the TGI (NCI-H460 lung) was > 100 µM. The TGI (SK-MEL-28 melanoma) was > 100 µM, the TGI (A498 renal) was > 100 µM and the TGI (SK-MEL-2 melanoma) was > 100 µM. The TGI (M14 melanoma) was > 100 µM, the TGI (IGROV1 ovarian) was > 100 µM and the TGI (OVCAR-5 ovarian) was > 100 µM. The TGI (HS 578T breast) was > 100 µM, the TGI (MALME-3M melanoma) was > 100 µM and the TGI (UO-31 renal) was > 100 µM. The TGI (SK-MEL-5 melanoma) was > 100 µM, the TGI (MCF7 breast) was > 100 µM and the TGI (SF-539 CNS) was > 100 µM. The TGI (OVCAR-4 ovarian) was > 100 µM, the TGI (CCRF-CEM leukemia) was > 100 µM and the TGI (EKVX NSCLC) was > 100 µM. The TGI (NCI/ADR-RES ovarian) was > 100 µM, the TGI (MDA-MB-435) was > 100 µM and the TGI (SF-268 CNS) was > 100 µM. For the same molecule, the TGI (HCT-116 colon) was > 100 µM, the TGI (NCI-H522 lung) was > 100 µM and the TGI (SN12C renal) was > 100 µM. For the same molecule, the TGI (UACC-62 melanoma) was > 100 µM, the TGI (LOX IMVI melanoma) was > 100 µM and the TGI (NCI-H23 lung) was > 100 µM. The TGI (CAKI-1 renal) was > 100 µM, the TGI (PC-3 prostate) was > 100 µM and the TGI (BT-549 breast) was > 100 µM. For the same molecule, the TGI (RPMI-8226 leukemia) was > 100 µM, the TGI (SF-295 CNS) was > 100 µM and the TGI (RXF 393 renal) was > 100 µM.

In the case of Nc1nc(Cl)cc(NCCO)n1, the TGI (SK-OV-3 ovarian) is reported as > 100 µM, the TGI (OVCAR-8 ovarian) is reported as > 100 µM and the TGI (HT29 colon) is reported as > 100 µM. The TGI (HCC-2998 colon) was > 100 µM, the TGI (ACHN renal) was > 100 µM and the TGI (SNB-75 CNS) was > 100 µM. The TGI (NCI-H226 lung) was > 100 µM, the TGI (A549 NSCLC) was > 100 µM and the TGI (MDA-N) was > 100 µM. For the same molecule, the TGI (HCT-15 colon) was > 100 µM, the TGI (TK-10 renal) was > 100 µM and the TGI (MOLT-4 leukemia) was > 100 µM. For the same molecule, the TGI (UACC-257 melanoma) was > 100 µM, the TGI (DU-145 prostate) was > 100 µM and the TGI (U251 CNS) was > 100 µM. For the same molecule, the TGI (KM12 colon) was > 100 µM, the TGI (MDA-MB-231 breast) was > 100 µM and the TGI (SR leukemia) was > 100 µM. For the same molecule, the TGI (786-0 renal) was > 100 µM, the TGI (T-47D breast) was > 100 µM and the TGI (OVCAR-3 ovarian) was > 100 µM. For the same molecule, the TGI (HOP-92 NSCLC) was > 100 µM, the TGI (COLO 205 colon) was > 100 µM and the TGI (SNB-19 CNS) was > 100 µM. For the same molecule, the TGI (SW-620 colon) was > 100 µM, the TGI (HOP-62 NSCLC) was > 100 µM and the TGI (NCI-H460 lung) was > 100 µM. For the same molecule, the TGI (SK-MEL-28 melanoma) was > 100 µM, the TGI (A498 renal) was > 100 µM and the TGI (SK-MEL-2 melanoma) was > 100 µM. For the same molecule, the TGI (M14 melanoma) was > 100 µM, the TGI (IGROV1 ovarian) was > 100 µM and the TGI (OVCAR-5 ovarian) was > 100 µM. For the same molecule, the TGI (HS 578T breast) was > 100 µM, the TGI (MALME-3M melanoma) was > 100 µM and the TGI (UO-31 renal) was > 100 µM. For the same molecule, the TGI (SK-MEL-5 melanoma) was > 100 µM, the TGI (MCF7 breast) was > 100 µM and the TGI (SF-539 CNS) was > 100 µM. The TGI (OVCAR-4 ovarian) was > 100 µM, the TGI (EKVX NSCLC) was > 100 µM and the TGI (NCI/ADR-RES ovarian) was > 100 µM. For the same molecule, the TGI (MDA-MB-435) was > 100 µM, the TGI (SF-268 CNS) was > 100 µM and the TGI (HCT-116 colon) was > 100 µM. For the same molecule, the TGI (NCI-H522 lung) was > 100 µM, the TGI (SN12C renal) was > 100 µM and the TGI (K-562 leukemia) was > 100 µM. For the same molecule, the TGI (UACC-62 melanoma) was > 100 µM, the TGI (LOX IMVI melanoma) was > 100 µM and the TGI (NCI-H23 lung) was > 100 µM. The TGI (CAKI-1 renal) was > 100 µM, the TGI (PC-3 prostate) was > 100 µM and the TGI (BT-549 breast) was > 100 µM. For the same molecule, the TGI (RPMI-8226 leukemia) was > 100 µM, the TGI (SF-295 CNS) was > 100 µM and the TGI (RXF 393 renal) was > 100 µM.
